Laboratory results reported in PMC12615753, “Glutathione as a taste modulator: molecular mechanisms of interaction with umami and sweet taste receptors” (Food Chemistry: Molecular Sciences, 2025).

Molecular target: T1, hTAS1R1 R277A/rTAS1R3 (Homo sapiens, UniProt Q7RTX1, R277A)
T1 construct: UniProtKB number Q7RTX1–1); expressed in transfected cells; host or cells: HEK293T/17 (ATCC CRL-11268)
T1 sequence (Q7RTX1 21-841 R277A): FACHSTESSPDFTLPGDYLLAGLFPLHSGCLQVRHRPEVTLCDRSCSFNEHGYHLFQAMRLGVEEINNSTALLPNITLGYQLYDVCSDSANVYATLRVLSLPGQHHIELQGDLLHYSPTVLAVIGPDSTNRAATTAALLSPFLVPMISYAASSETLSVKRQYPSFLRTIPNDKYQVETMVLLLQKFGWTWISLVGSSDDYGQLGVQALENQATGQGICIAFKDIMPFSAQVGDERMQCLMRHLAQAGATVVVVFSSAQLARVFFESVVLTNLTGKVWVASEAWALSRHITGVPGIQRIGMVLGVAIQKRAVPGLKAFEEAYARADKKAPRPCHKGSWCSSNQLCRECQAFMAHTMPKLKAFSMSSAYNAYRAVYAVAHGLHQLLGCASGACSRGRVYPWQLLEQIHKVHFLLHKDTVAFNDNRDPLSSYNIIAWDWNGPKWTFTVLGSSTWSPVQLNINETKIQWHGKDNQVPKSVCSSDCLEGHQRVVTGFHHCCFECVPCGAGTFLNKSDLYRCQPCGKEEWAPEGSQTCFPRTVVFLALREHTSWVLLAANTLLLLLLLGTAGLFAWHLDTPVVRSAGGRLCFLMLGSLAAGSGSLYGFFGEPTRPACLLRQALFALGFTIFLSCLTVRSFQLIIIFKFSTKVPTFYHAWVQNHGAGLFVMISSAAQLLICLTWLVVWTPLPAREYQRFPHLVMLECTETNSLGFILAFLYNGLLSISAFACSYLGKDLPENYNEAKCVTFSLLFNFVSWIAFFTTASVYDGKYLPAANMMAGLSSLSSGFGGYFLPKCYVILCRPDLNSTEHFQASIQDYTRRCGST
T1 sequence (Q923K1 21-858 partner): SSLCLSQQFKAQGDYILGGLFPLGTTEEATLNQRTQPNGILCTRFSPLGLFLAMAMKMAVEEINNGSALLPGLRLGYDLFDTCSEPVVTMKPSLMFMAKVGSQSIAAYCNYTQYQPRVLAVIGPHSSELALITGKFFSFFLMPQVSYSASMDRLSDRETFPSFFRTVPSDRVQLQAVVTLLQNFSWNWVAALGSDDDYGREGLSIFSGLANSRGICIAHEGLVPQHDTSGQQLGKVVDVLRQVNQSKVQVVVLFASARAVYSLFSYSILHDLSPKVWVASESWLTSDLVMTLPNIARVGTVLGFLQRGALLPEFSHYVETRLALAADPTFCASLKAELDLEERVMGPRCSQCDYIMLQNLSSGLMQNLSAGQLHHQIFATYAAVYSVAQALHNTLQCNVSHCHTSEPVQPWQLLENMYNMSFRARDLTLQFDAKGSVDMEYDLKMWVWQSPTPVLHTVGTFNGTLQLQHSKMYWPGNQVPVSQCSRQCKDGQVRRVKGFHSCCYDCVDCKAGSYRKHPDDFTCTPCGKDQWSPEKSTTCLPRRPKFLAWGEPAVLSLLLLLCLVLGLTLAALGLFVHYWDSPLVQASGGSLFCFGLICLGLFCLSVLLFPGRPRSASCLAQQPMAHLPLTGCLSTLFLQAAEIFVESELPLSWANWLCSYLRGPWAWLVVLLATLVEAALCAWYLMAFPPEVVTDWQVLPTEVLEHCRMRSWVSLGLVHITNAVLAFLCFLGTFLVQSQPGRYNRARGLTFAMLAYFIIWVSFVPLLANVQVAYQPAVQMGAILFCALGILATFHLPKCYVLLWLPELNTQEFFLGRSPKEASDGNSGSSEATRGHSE
Assay: Calcium assay, hTAS1R1 mutant co-expressed with rTAS1R3
Type: cell-based, rat

| Structure (SMILES) | EC50 | effect of the added compound (1 mM) on the response to L-Glu (R277A) | response to the agonist alone, vs WT (R277A) | Max ∆F/F0 (R277A, GSH) | R1 = mutant EC50/WT EC50 (R277A, GSH) |
| --- | --- | --- | --- | --- | --- |
| N[C@@H](CCC(=O)N[C@@H](CS)C(=O)NCC(=O)O)C(=O)O [GSH, γ-L-glutamyl-L-cysteinyl-glycine] | 1.84 ± 0.174 mM | did not affect | significantly increased the initial amplitude | 0.85 ± 0.02 | 0.7 |
| N[C@@H](CCC(=O)O)C(=O)O [L-Glu, L-glutamic acid, reference compound] | – | – | increased the amplitude | – | – |
